Where no end group is shown, it is not given here. 5‑FAM = 5-carboxyfluorescein
Experiments:
[1] = molecular target: T1, GST-PHD1 (PHD1 finger of KDM5A) (Homo sapiens, UniProt P29375); assay: Competitive-binding fluorescence polarization (FP) assay, displacement of 5-FAM H3K4me0 10-mer from GST-PHD1; details: for inhibition at 1000 µM / %I at 1 mM: 1 mM compound, quadruplicate (n = 1 for R1 = OBn; n = 2 for R1 = Me); for inhibition at 1000 µM: read-out: %I at 1 mM; for IC50: HTS assay conditions, read-out: approximate IC50
T1 construct: GST-PHD1(S287-E344); made in house; host or cells: E. coli BL21 (DE3), pET41a
T1 sequence (P29375 287-344): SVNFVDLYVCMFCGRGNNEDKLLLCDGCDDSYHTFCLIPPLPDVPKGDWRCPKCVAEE
Excerpt: Fluorescence polarization (FP) has been widely used as a biophysical method to detect and quantify disruptions in protein–protein and protein–peptide interactions.[33,34] It served as the primary assay in the high-throughput screening (HTS) campaign to identify ligands for the PHD1 finger (Fig. 1b). The FP assay includes a GST-labeled […] construct and its H3K4me0 10-mer peptide substrate (Fig. 1c and d).[21,22] […]
Fig. 2 Dose-dependent inhibition of GST-PHD1 − H3 tail interaction by screen hits obtained from HTS of the NCI collection. […] DMSO is used as the negative (−) control (0% inhibition).
Fluorescence polarization high-throughput screening
To test the activity of purified GST-PHD1(S287-E344), direct-binding and competitive-binding fluorescence polarization (FP) were done, as previously described.3,4 For screening, GST-PHD1(S287-E344) was diluted in buffer (50 mM HEPES, pH 7.5, 50 mM KCl, 0.01% Tween-20, 1 mM TCEP) with 20 nM 5-carboxyfluorescein-labeled H3 10-mer peptide and with or without 0.1% bovine gamma globulin (BGG). This was treated as the assay buffer (with 0.1% BGG) and also as the negative control. For the positive control, 120 μM unlabeled H3K4 10-mer peptide was added to the assay buffer. The assay buffer was dispensed using the EL406 Biotek liquid dispenser onto black, round-bottom low volumes 384-microwell plates (Corning 4514) to a final volume of 10 μL per well. DMSO (10 nL or 50 nL) or screening compounds at 10 nL (ChemBridge Premium Diversity collection at 10 μM final) or 50 nL (ML fragments and NCI libraries at 50 μM final) was added to plates containing the assay buffer using the BioMek liquid handler/dispenser. The final DMSO in the samples was either 0.1% or 0.5%. Fluorescence polarization measurements were performed directly and after 45 minutes of incubation at room temperature using a Perkin Elmer Envision and XCite 2105 multimode microplate reader equipped with a stacker. Excitation light was delivered with a xenon flash lamp at 480/30 nm (BW) and emission was collected after passing through an emission filter (535/25 nm). For fluorescence polarization experiments, two 535/40 nm filters (S, P) and dual dichroic D505/D535 nm mirrors were used.
For FP-based assay optimization, the assay signal dynamic range was evaluated using the negative and positive control buffers with varying amounts of GST-PHD1 (0.5, 1, 1.5, or 2 μM) in the presence or absence of 0.1% BGG. For each condition, buffer was dispensed into 3 columns of a 384-well plate (48 wells each) using the BioMek liquid dispenser and the FP signal was recorded. The Z′ value reports on the assay robustness by reflecting both the dynamic range and the data variation associated with assay measurements.5 The Z′ value is given by the following equation: […]
where σ represents the standard deviation, PC represents the positive control, NC represents the negative control, and μ represents the mean value of the FP signal.
Screen results were analyzed using the UCSF SMDC web application called HiTS […]
(http://smdc.ucsf.edu/hits/). […]
equal to 3 standard deviations of the mean percent inhibition values, where the negative control is set to 0% inhibition and the positive control is set to 100% inhibition. Cheminformatics analysis on the screen hits was done using DataWarrior, an open-source program for data visualization and analysis with chemical intelligence.6 The Tanimoto coefficient was used to gauge the similarity and diversity of screen hits and cluster any compounds with greater than 75% similarity.
Screen hits were repurchased when available. Structurally similar derivatives were purchased when exact compounds were not available for purchase. Compound purity was confirmed by LCMS. All compounds were dissolved in DMSO-d6 to a final concentration of 40 mM unless otherwise specified. All putative screen hits were confirmed in dose-response using the competitive binding fluorescence polarization […]
assay. […]

15N-labeled PHD1 (KDM5A) = molecular target: T2, 15N-labeled PHD1 (KDM5A) (Homo sapiens, UniProt P29375); assay: 2D 1H-15N HSQC NMR binding assay; details: for perturbation of some residues: most perturbed residues
T2 construct: PHD1(S287-E344) construct; GST (N, cleaved yes); made in house; host or cells: E. coli BL21 (DE3), M9 minimal media with 15N ammonium chloride
T2 sequence (P29375 287-344): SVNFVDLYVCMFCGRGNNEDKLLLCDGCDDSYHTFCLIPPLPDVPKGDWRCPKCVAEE
Protocol: The binding of the ChemBridge screen hits to PHD1 was further evaluated using 2D ^1H–^15N HSQC NMR spectroscopy. This direct binding method allowed us to monitor binding by observing any ligand-induced changes in the previously assigned ^1H–^15N PHD1 amino acid resonances.[12] The HSQC spectra of 50 μM ^15N-labeled PHD1 with DMSO were overlaid with the spectra of the ^15N-labeled PHD1 incubated with 1 mM compound. […] Compound 715 958 was insoluble in the NMR buffer at this concentration and was not evaluated. […]
Nuclear magnetic resonance (NMR) binding assays
A PHD1(S287-E344) construct was used in NMR studies, as previously described.4 Briefly, the GST-PHD1 fusion construct was expressed in M9 minimal media containing 15N ammonium chloride. The labeled GST-PHD1 was purified and the GST tag was cleaved as described in the Expression of GST-PHD1(S287-E344) and GST tag removal section. For 2D 1H, 15N Fast HSQC (FHSQC) binding experiments, 50 μM 15N-labeled PHD1 was used and spectra were measured after the addition of DMSO-d6 or compound at 1 mM in DMSO-d6 for single concentration experiments. The NMR samples were prepared in 50 mM HEPES pH 7.5, 150 mM KCl buffer with 5 mM BME, 100 μM ZnCl2, and 10% D2O at a final concentration of 2.4% DMSO-d6. The HSQC spectra were collected on a 600 MHz Bruker Avance NEO spectrometer equipped with an actively shielded Z-gradient […] TCI cryoprobe using programs from the pulse program library (TopSpin 4.0.6). FHSQC acquisition parameters were: NS = 8, acquisition time = 0.106 s 1H, 0.060 s 15N. All experiments were carried out at 298 K (calibrated with 4% v/v MeOH […]
For 2D 1H, 15N FHSQC titration experiments, 50 μM 15N-labeled PHD1 was incubated with 0, 0.5, 1, 2, or 4 mM B2 sample with a final concentration of 2.9% DMSO-d6 for all samples. The NMR samples were prepared in 50 mM HEPES pH 7.5, 150 mM KCl buffer with 5 mM BME, 100 μM ZnCl2, and 5% D2O. The 2D 15N FHSQC spectra for the titration series were recorded at 298 K on a Bruker 800 MHz AVANCE-I spectrometer equipped with an actively shielded Z-gradient TCI cryoprobe using programs from the pulse program library (TopSpin 4.0.8). FHSQC acquisition parameters were: NS = 8, acquisition time = 0.082 s 1H, 0.045s 15N. The analysis of the chemical shift perturbation of the amide cross-peaks during the titration with the ligand was performed using CCPNMR Analysis software and use PHD1 with 2.9% DMSO-d6 as the reference.7 Apo PHD1 backbone assignments were imported from the BMRB (entry 30808).4 The chemical shift perturbations for all the NMR experiments were calculated in CCPNMR v3.2, which uses the following equation:
∆ chemical shift = ∆H2 + 0.15(∆N)2

[2] = molecular target: GST-labeled PHD1(S283-E344) construct of KDM5A; assay: fluorescence polarisation; direct binding of C-terminal 5-FAM H3 10-mer peptide to GST-PHD1; triplicate measurements
[3] = molecular target: GST-labeled PHD1(S283-E344) construct of KDM5A (two Zn(II) ions bound (PHD zinc finger)); assay: fluorescence polarisation; competitive displacement of 5-FAM H3 10-mer (10 nM) from GST-PHD1 (2 μM) by unlabeled H3 10-mer peptide; triplicate measurements; details: both partners purified

`CCOC(=O)c1ccc(S(=O)(=O)Nc2ccc3oc(C)c(C(C)=O)c3c2)cc1` [Compound B5, ethyl 4-(N-(3-acetyl-2-methylbenzofuran-5-yl)sulfamoyl)benzoate] showed an inhibition at 1000 µM [1] of 11%.

`CC(=O)c1c(C)oc2ccc(NS(=O)(=O)c3cccc(Cl)c3)cc12` [Compound B7, N-(3-acetyl-2-methylbenzofuran-5-yl)-3-chlorobenzenesulfonamide] gave an inhibition at 1000 µM [1] of 13%.

With `Cc1oc2ccc(NS(=O)(=O)c3ccccc3)cc2c1C(=O)OCc1ccccc1` [Compound 8018-7366] the inhibition at 1000 µM [1] was 6% and the “potency relative to parent hit” value ([1]; FP concentration-response, compared with 516 969 or 990 099) was “drastically reduced potency”.

With `Cc1oc2ccc(NS(=O)(=O)c3ccc(C(=O)O)cc3)cc2c1C(=O)OCc1ccccc1` [990 099] the “average shifts (CSP on PHD1)” value (15N-labeled PHD1 (KDM5A); 50 μM 15N PHD1, 1 mM compound) was 0.0025–0.0033 ppm, the “perturbation of some residues” value (15N-labeled PHD1 (KDM5A); 50 μM 15N PHD1, 1 mM compound) was “greater than 0.008 ppm” and the inhibition at 1000 µM [1] was 45%. It also gave an IC50 ([1]; FP concentration-response) of over 1500 µM.

`CC(=O)c1c(C)oc2ccc(NS(=O)(=O)c3ccc(C(N)=O)cc3)cc12` [Compound B3, 4-(N-(3-acetyl-2-methylbenzofuran-5-yl)sulfamoyl)benzamide] gave an inhibition at 1000 µM [1] of 12%.

For `C[C@H](N)C(=O)N[C@@H](CCCNC(=N)N)C(=O)N[C@H](C(=O)N[C@@H](CCCCN)C(=O)N[C@@H](CCC(N)=O)C(=O)N[C@H](C(=O)N[C@@H](C)C(=O)N[C@@H](CCCNC(=N)N)C(=O)N[C@@H](CCCCN)C(=O)N[C@@H](CO)C(=O)O)[C@@H](C)O)[C@@H](C)O` [unlabeled H3 peptide, reference compound], the Ki ([1]; displacement of 5-FAM H3 10-mer (10 nM) from GST-PHD1 (2 μM)) was 0.95 ± 0.14 µM.

Work on `COC(=O)c1cccc(S(=O)(=O)Nc2ccc3oc(C)c(C(C)=O)c3c2)c1` [Compound B6, methyl 3-(N-(3-acetyl-2-methylbenzofuran-5-yl)sulfamoyl)benzoate] yielded an inhibition at 1000 µM [1] of 4%.

With `CCc1nnc(NS(=O)(=O)c2ccc(NC(=O)c3ccc(OC)c(OC)c3)cc2)s1` [988 385] the “average shifts (CSP on PHD1)” value (15N-labeled PHD1 (KDM5A); 50 μM 15N PHD1, 1 mM compound) was at most 0.002 ppm and the “Δδ of residue N304” value (15N-labeled PHD1 (KDM5A); 50 μM 15N PHD1, 1 mM compound) was over 0.01 ppm.

For `CC(=O)c1c(C)oc2ccc(NS(=O)(=O)c3ccc(C(=O)O)cc3)cc12` [Compound B1, 4-(N-(3-acetyl-2-methylbenzofuran-5-yl)sulfamoyl)benzoic acid], the “%I at 1 mM” value [1] was 38% and the inhibition at 1000 µM [1] was 38%.

With `CC(=O)c1c(C)oc2ccc(NS(=O)(=O)c3cccc(C(N)=O)c3)cc12` [Compound B4, 3-(N-(3-acetyl-2-methylbenzofuran-5-yl)sulfamoyl)benzamide] the inhibition at 1000 µM [1] was 9%.

`Cc1c(CCC(=O)N2CCCC2C(=O)O)c(=O)oc2c(C)c(O)ccc12` (stereo not shown) [991 830] was tested, and the “average shifts (CSP on PHD1)” value (15N-labeled PHD1 (KDM5A); 50 μM 15N PHD1, 1 mM compound) was at most 0.002 ppm.

For `O=C(C1CC1)N1CCc2sc(S(=O)(=O)Nc3cccc(Cl)c3F)cc2C1` [990 856], the “average shifts (CSP on PHD1)” value (15N-labeled PHD1 (KDM5A); 50 μM 15N PHD1, 1 mM compound) was at most 0.002 ppm.

In the case of `CC(=O)c1c(C)oc2ccc(NS(=O)(=O)c3cccc(C(=O)O)c3)cc12` [Compound B2, 3-(N-(3-acetyl-2-methylbenzofuran-5-yl)sulfamoyl)benzoic acid], the “chemical shift perturbations on PHD1 in titration” value (15N-labeled PHD1 (KDM5A); B2 at 0.5, 1, 2 and 4 mM with 50 μM 15N PHD1) is reported as “chemical shift perturbations are small”, the “%I at 1 mM” value [1] is reported as 45% and the inhibition at 1000 µM [1] is reported as 45%. For the same molecule, the IC50 ([1]; FP concentration-response) was about 1300 µM.

With `CSc1nnc2c(n1)OC(c1ccncc1)Nc1ccccc1-2` (stereo not shown) [516 969] the “average shifts (CSP on PHD1)” value (15N-labeled PHD1 (KDM5A); 50 μM 15N PHD1, 1 mM compound) was 0.0025–0.0033 ppm, the “Δδ of residue Cys322” value (15N-labeled PHD1 (KDM5A); 50 μM 15N PHD1, 1 mM compound) was 0.009 ppm and the “perturbation of some residues” value (15N-labeled PHD1 (KDM5A); 50 μM 15N PHD1, 1 mM compound) was “greater than 0.008 ppm”.

Molecule `CC(=O)c1c(C)oc2ccc(N(C(C)=O)S(=O)(=O)c3ccc(C(=O)O)cc3)cc12` [7 917 645] has an inhibition at 1000 µM [1] of 30%.

Work on ARTKQTARKS-{5‑FAM} [C-terminal 5-FAM H3 10-mer peptide, P68431 2-11] yielded a Kd [2] of 0.95 µM.

B1: unlabeled H3 10-mer peptide (peptide, UniProt P68431 2-11, looked up)
peptide: ARTKQTARKS
notes: histone H3 N-terminal tail 10-mer with unmodified K4 (H3K4me0); also called unlabeled H3K4me0 10-mer; H3K4me0 10-mer peptide
Molecule B1 has a Ki [3] of 0.95 ± 0.14 µM.

Source: paper PMC10915964, “Identifying ligands for the PHD1 finger of KDM5A through high-throughput screening†” (RSC Chemical Biology, 2023)
